Assay results taken from article PMC7502707, “Characterization and validation of a preventative therapy for hypertrophic cardiomyopathy in a murine model of the disease” (Proceedings of the National Academy of Sciences of the …, 2020).

Columns and labels:
[1] = tested on: myocytes isolated from cTnI-G203S mice; experiment: Cell size of myocytes isolated from treated mice; format: in vivo, mouse; settings: 10 μM 3×/wk/5 wk, compared to AID(S)-TAT
Protocol: Cell size was determined as previously described ([64]). Detailed methods are provided in SI Appendix.
Echocardiographic measurement of left ventricular function were performed on mice under light methoxyflurane anesthesia using an i13L probe on a Vivid 7 Dimension ultrasound system (GE Healthcare, Little Chalfont, United Kingdom) as previously described (4, 7). Echocardiographic measurements were taken on M-mode in triplicate from separate mice at a sweep speed of 200 mm/s. Each n represents the average of quantitative measurements from wt or cTnI-G203S mice for each treatment group. […] FS was calculated by the formula [(LVEDD-LVESD)/EDD] x 100.
Cell size was determined as previously described (16). […]
To measure kidney toxicity, urea and creatinine concentration was assessed using QuantiChrom Urea and Creatinine assay kits respectively (BioAssay Systems, Hayward CA). To measure liver toxicity, alanine transaminase (ALT) and aspartate transaminase (AST) concentration was measured using Alanine Transaminase and Aspartate Transaminase assay kits respectively (BioAssay Systems, Hayward CA). […]

[2] = tested on: myocytes isolated from wt and cTnI-G203S mice; experiment: Mitochondrial membrane potential (JC-1) in myocytes isolated from treated mice; format: in vivo, mouse
Protocol: Male mice expressing the human cTnI gene encoding the human disease-causing mutation cTnI-G203S were used for all studies. […] Male mice expressing the normal human cTnI gene were used as controls (wt). Ten-week-old mice were used for in vitro studies. For in vivo studies, 20- or 30-wk-old cTnI-G203S mice were treated with 10 μM AID-TAT or AID[S]-TAT via intraperitoneal injection, 3×/wk/5 wk. In vivo dose of AID-TAT or AID[S]-TAT (10 μM) was calculated based on blood volume, equating to ∼2 mg/kg total BW. Male animal models were used to eliminate potential differences in responses due to sex. Experiments were performed in a total of 21 wt (AID[S]-TAT), 6 wt (AID-TAT), 15 cTnI-G203S (AID[S]-TAT), and 26 cTnI-G203S (AID-TAT) mice. All animals were randomly assigned to treatment groups.
Fluorescence was measured on a Hamamatsu Orca ER digital camera attached to an inverted Nikon TE2000-U microscope. Fluorescent indicator 5,5′,6,6′-tetrachloro-1,1′,3,3′-tetraethylbenzimidazolylcarbocyanine iodide was used to measure Ψm in cardiac myocytes, as previously described (JC-1, Molecular Probes) ([61]). Autofluorescence was used to measure flavoprotein oxidation in cardiac myocytes based on previously described methods ([13], [29], [62]). Responses to drugs were reported as a percentage increase from the basal average.
Cells were incubated in calcium-free HBS (supplemented with 3 mM EGTA and 200 nM JC-1) for at least 3 h prior to measuring changes in m. Sodium cyanide (NaCN, 40 mM, mitochondrial electron transport blocker) was added at the end of each experiment to collapse m, confirming that the JC-1 signal was indicative of m.
Additionally, individual 580 nm and 535 nm wavelength signals were assessed in each experiment to determine whether the fluorescent indicator was accurately measuring m. Autofluorescence was used to measure flavoprotein oxidation in cardiac myocytes based on previously described methods (ex = 480 nm, em = 535 nm, interval = 1 min, exposure = 1.5 seconds) (4, 6, 7). Carbonyl cyanide-4-(trifluoromethoxy)phenylhydrazone (FCCP, 50 μM, mitochondrial electron transport chain uncoupler) was added at the end of each experiment to increase flavoprotein oxidation confirming signal was mitochondrial in origin. Ratiometric JC-1 or flavoprotein fluorescent signals were quantified by manually tracing myocytes and subtracting an equivalent background region
Responses to drugs were reported as a percentage increase from the basal average. […]

## QQLEEDLKGYLDWITQAE [AID-TAT]
[1]; 30-wk-old cTnI-G203S mice
  echocardiographic parameters and cell size: did not significantly improve echocardiographic parameters, or alter cell size
[1]; precardiomyopathic cTnI-G203S mice
  myocyte cell size: significantly lower cell size
[2]; myocytes from cTnI-G203S mice with established cardiomyopathy treated 10 μM 3×/wk/5 wk from 30 wk
  cardiac Ψm and mitochondrial metabolic activity (flavoprotein oxidation) following BayK(−): does not restore cardiac Ψm or mitochondrial metabolic activity to wt levels
[2]; myocytes from precardiomyopathic cTnI-G203S mice treated 10 μM i.p. 3×/wk/5 wk from 20 wk
  increase in Ψm (JC-1) following BayK(−): reduced this response to a level comparable to that observed in wt myocytes
